In ChEMBL document CHEMBL1201862, “PubChem BioAssay data set” (2004):
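96-well plates; 48 h exposure; 5 concentrations. Endpoints by linear interpolation between flanking doses. Not reached: highest tested concentration assigned. GI50: concentration for 50% inhibition of growth.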 Active and inactive are the calls of the source. Rule as the data show it: active = GI50 up to about 1.1 µM and inactive = higher. Peptide text beside a SMILES is read from it. * marks the point of attachment. OSu = O=C1CCC(=O)N1O*

Tests used:
Assay in all cases: growth of human tumour cells (NCI), 48 h
SK-OV-3 = tested on: SK-OV-3
CAKI-1 = tested on: CAKI-1
IGROV-1 = tested on: IGROV-1
KM12 = tested on: KM12
SF-295 = tested on: SF-295
SR = tested on: SR
SN12C = tested on: SN12C
SK-MEL-5 = tested on: SK-MEL-5
UACC-62 = tested on: UACC-62
786-0 = tested on: 786-0
M14 = tested on: M14
OVCAR-4 = tested on: OVCAR-4
MDA-N = tested on: MDA-N
SK-MEL-28 = tested on: SK-MEL-28
DU-145 = tested on: DU-145
SF-539 = tested on: SF-539
NCI/ADR-RES = tested on: NCI/ADR-RES
A549 = tested on: A549
MCF7 = tested on: MCF7

SMILES | GI50 (SK-OV-3) | GI50 (CAKI-1) | GI50 (IGROV-1) | GI50 (KM12) | GI50 (SF-295) | GI50 (SR) | GI50 (SN12C) | GI50 (SK-MEL-5) | GI50 (UACC-62) | GI50 (786-0) | GI50 (M14) | GI50 (OVCAR-4) | GI50 (MDA-N) | GI50 (SK-MEL-28) | GI50 (DU-145) | GI50 (SF-539) | GI50 (NCI/ADR-RES) | GI50 (A549) | GI50 (MCF7)
C=C1C(=O)O[C@H]2[C@H]([C@H](C)CCCC(C)=O)O[C@H]([C@@]3(C)CCC(=O)O3)C[C@@H]12 | > 100 µM (inactive) | 18.3 µM (inactive) | > 100 µM (inactive) | 98.9 µM (inactive) | > 100 µM (inactive) | 55.6 µM (inactive) | 92 µM (inactive) | > 100 µM (inactive) | 66.5 µM (inactive) | 35.2 µM (inactive) | 33.9 µM (inactive) | > 100 µM (inactive) | 53.1 µM (inactive) | > 100 µM (inactive) | 40.6 µM (inactive) | 59.8 µM (inactive) | > 100 µM (inactive) | > 100 µM (inactive) | 
C=C1C(=O)O[C@@H]2[C@H]1CCC(C)=C1C=CC(=O)[C@]12C | 27.2 µM (inactive) | 15.1 µM (inactive) | 21.8 µM (inactive) | 12.4 µM (inactive) | 17 µM (inactive) | 13.6 µM (inactive) | 12.6 µM (inactive) | 13.9 µM (inactive) | 10.3 µM (inactive) | > 10 µM (inactive) |  |  |  | 11.1 µM (inactive) |  | 15.5 µM (inactive) |  | 23.6 µM (inactive) | 
COc1cccc(CN(C(=O)/C=C\Sc2ccccc2)C(C)(C)C)c1 | > 100 µM (inactive) | > 100 µM (inactive) | 57.1 µM (inactive) | > 100 µM (inactive) | > 100 µM (inactive) |  | > 100 µM (inactive) | 49 µM (inactive) | > 100 µM (inactive) | > 100 µM (inactive) | 84.7 µM (inactive) | 96.8 µM (inactive) | 74 µM (inactive) | > 100 µM (inactive) | > 100 µM (inactive) | > 100 µM (inactive) | 58.9 µM (inactive) | 43.8 µM (inactive) | 81.3 µM (inactive)
N=C(N)SCc1cn2ccccc2n1 |  | > 100 µM (inactive) |  | > 100 µM (inactive) | > 100 µM (inactive) | > 100 µM (inactive) | > 100 µM (inactive) | > 100 µM (inactive) |  | > 100 µM (inactive) | > 100 µM (inactive) | > 100 µM (inactive) |  | > 100 µM (inactive) |  | > 100 µM (inactive) |  | > 100 µM (inactive) | 
O=C1OC(c2ccc([N+](=O)[O-])cc2)=N/C1=C\c1ccc(O)cc1 | > 100 µM (inactive) | > 100 µM (inactive) | > 100 µM (inactive) | > 100 µM (inactive) | > 100 µM (inactive) | > 100 µM (inactive) | > 100 µM (inactive) | > 100 µM (inactive) | > 100 µM (inactive) | > 100 µM (inactive) | > 100 µM (inactive) | > 100 µM (inactive) | > 100 µM (inactive) | > 100 µM (inactive) | > 100 µM (inactive) | > 100 µM (inactive) |  | > 100 µM (inactive) | > 100 µM (inactive)
CC(=O)OC12c3ccccc3-c3ccccc3C1C(C(=O)O)C2C(=O)O (stereo not given) | > 10 µM (inactive) | > 10 µM (inactive) | > 10 µM (inactive) | > 10 µM (inactive) | > 10 µM (inactive) | > 10 µM (inactive) | > 10 µM (inactive) | > 10 µM (inactive) |  | > 10 µM (inactive) | > 10 µM (inactive) | > 10 µM (inactive) |  | > 10 µM (inactive) | > 10 µM (inactive) | > 10 µM (inactive) | > 10 µM (inactive) |  | > 10 µM (inactive)
CC(NC(=O)OC(C)(C)C)C(=O)NC1CCCC1 (stereo not given) | > 100 µM (inactive) | > 100 µM (inactive) | > 100 µM (inactive) | > 100 µM (inactive) | > 100 µM (inactive) | > 100 µM (inactive) | > 100 µM (inactive) | > 100 µM (inactive) |  | > 100 µM (inactive) | > 100 µM (inactive) | > 100 µM (inactive) | > 100 µM (inactive) | > 100 µM (inactive) | > 100 µM (inactive) |  | > 100 µM (inactive) | > 100 µM (inactive) | > 100 µM (inactive)
Nn1c(CCCCCCCCc2nnc(COc3ccccc3)n2N)nnc1COc1ccccc1 | > 100 µM (inactive) | > 100 µM (inactive) | > 100 µM (inactive) | > 100 µM (inactive) | > 100 µM (inactive) |  | > 100 µM (inactive) | > 100 µM (inactive) | > 100 µM (inactive) | > 100 µM (inactive) | > 100 µM (inactive) | > 100 µM (inactive) | > 100 µM (inactive) | > 100 µM (inactive) | > 100 µM (inactive) |  | > 100 µM (inactive) | > 100 µM (inactive) | > 100 µM (inactive)
Oc1cc(-c2ccc3ccccc3c2)nc2ncc(Cl)cc12 | 4.73 µM (inactive) |  | 8.09 µM (inactive) | 3.79 µM (inactive) |  |  | 9.06 µM (inactive) |  | 3.66 µM (inactive) | 2.84 µM (inactive) | 8.17 µM (inactive) | 6.43 µM (inactive) |  | 40.9 µM (inactive) | 11.4 µM (inactive) | 5.62 µM (inactive) | 6.32 µM (inactive) | 6.92 µM (inactive) | 2.44 µM (inactive)
O=[N+]([O-])C(=C(Nc1ccccc1)Nc1ccccc1)C(Cl)=C(Cl)Cl | 29 µM (inactive) | 17.1 µM (inactive) | 12.9 µM (inactive) | 24.9 µM (inactive) | 17.8 µM (inactive) |  | 17.1 µM (inactive) | 13.8 µM (inactive) | 15.6 µM (inactive) | 15.8 µM (inactive) | 18.2 µM (inactive) | 12.2 µM (inactive) | 12.6 µM (inactive) | 18.7 µM (inactive) | 17.5 µM (inactive) | 20.2 µM (inactive) | 22.6 µM (inactive) | 17.7 µM (inactive) | 12 µM (inactive)
Fc1nc(Sc2ncnc3nc[nH]c23)nc(-c2c3ccccc3c3sc4ccccc4n23)n1 | > 100 µM (inactive) | > 100 µM (inactive) | > 100 µM (inactive) | > 100 µM (inactive) | > 100 µM (inactive) |  | > 100 µM (inactive) | > 100 µM (inactive) | > 100 µM (inactive) | > 100 µM (inactive) | 43.3 µM (inactive) | > 100 µM (inactive) | > 100 µM (inactive) | 85.5 µM (inactive) | > 100 µM (inactive) | > 100 µM (inactive) | > 100 µM (inactive) | > 100 µM (inactive) | > 100 µM (inactive)
O=c1oc2ccc3ccccc3c2cc1-c1cn2c(n1)sc1ccccc12 | > 100 µM (inactive) | > 100 µM (inactive) | > 100 µM (inactive) | > 100 µM (inactive) | > 100 µM (inactive) |  |  | > 100 µM (inactive) | 92.7 µM (inactive) | > 100 µM (inactive) | > 100 µM (inactive) | > 100 µM (inactive) | > 100 µM (inactive) | > 100 µM (inactive) | > 100 µM (inactive) |  | > 100 µM (inactive) | > 100 µM (inactive) | 26.4 µM (inactive)
NCCCCC(NC(=O)C(N)Cc1ccc(O)cc1)C(=O)NC(Cc1ccc(O)cc1)C(=O)NC(CCCCN)C(=O)ON1C(=O)CCC1=O (stereo not given) (H-YKYK-OSu; configuration not given here) |  |  | > 100 µM (inactive) | > 100 µM (inactive) |  | > 100 µM (inactive) | > 100 µM (inactive) | > 100 µM (inactive) | > 100 µM (inactive) | > 100 µM (inactive) | > 100 µM (inactive) |  | > 100 µM (inactive) | > 100 µM (inactive) |  |  |  | > 100 µM (inactive) | > 100 µM (inactive)
CCCCOc1c(C(=O)O)cc(Br)cc1C(=O)O | > 100 µM (inactive) | > 100 µM (inactive) | > 100 µM (inactive) | > 100 µM (inactive) | > 100 µM (inactive) |  | > 100 µM (inactive) | > 100 µM (inactive) |  | > 100 µM (inactive) | > 100 µM (inactive) | > 100 µM (inactive) | > 100 µM (inactive) | > 100 µM (inactive) |  | > 100 µM (inactive) | > 100 µM (inactive) | > 100 µM (inactive) | > 100 µM (inactive)
N#CC(C#N)=Cc1ccc(C=C2SC3=C(SCCS3)S2)s1 | 74.8 µM (inactive) | 3.47 µM (inactive) | 4.52 µM (inactive) | 2.25 µM (inactive) | 24.4 µM (inactive) |  | 66.2 µM (inactive) | 3.33 µM (inactive) | 2.89 µM (inactive) | 13.4 µM (inactive) | 12.4 µM (inactive) | 9.68 µM (inactive) | 0.618 µM (active) | > 100 µM (inactive) | > 100 µM (inactive) | 0.63 µM (active) | 1.63 µM (inactive) | 55.5 µM (inactive) | 2.24 µM (inactive)
CC1(C)CN(c2ccccc2)C(=O)C1OC(=O)[C@@]1(C)C[C@@H]2C=C[C@H]1C2 (stereo not given in full) | 35.1 µM (inactive) | 26.5 µM (inactive) | 16.9 µM (inactive) | 21.7 µM (inactive) | 24.5 µM (inactive) |  | 21.3 µM (inactive) | 14.9 µM (inactive) | 18 µM (inactive) | 21.8 µM (inactive) | 22 µM (inactive) | 18.1 µM (inactive) | 18.7 µM (inactive) | 18.1 µM (inactive) | 87.5 µM (inactive) | 23.4 µM (inactive) | 23 µM (inactive) | 29.6 µM (inactive) | 24.4 µM (inactive)
CC(C)=CC1C(C(=O)OCc2cc3c(cc2Cl)OCO3)C1(C)C (stereo not given) |  | 56.1 µM (inactive) | 20 µM (inactive) | 27.7 µM (inactive) | 26.3 µM (inactive) | 15.7 µM (inactive) | 28.6 µM (inactive) | 16.7 µM (inactive) | 43.1 µM (inactive) | 28.4 µM (inactive) | 36.7 µM (inactive) | 49.8 µM (inactive) | 24.7 µM (inactive) | 54.1 µM (inactive) | > 100 µM (inactive) |  | 42.8 µM (inactive) | 31.5 µM (inactive) | 
